# Reference: publication PMC7309225, “Synthesis, Biodistribution, and Radiation Dosimetry of a Novel mGluR5 Radioligand: ^18F-AZD9272” (ACS Chemical Neuroscience, 2020)
# Several values for one entry are separate records, joined by “and”; a condition that tells them apart may be missing. Equal entries are not always repeated.
# Columns and labels:
# [1] = system: monoamine oxidase-B (MAO-B); set-up: method as in PMID 23541825; conditions: NHP brain; cited from earlier work
# mGluR5 = assay: Brain PET in cynomolgus monkey (HRRT), VT by 2TC model and Logan GA; format: in vivo
# Experimental: Two male cynomolgus monkeys (NHP1: 5460 g and NHP2: 7080 g) were used in this study. […] Anesthesia was induced by intramuscular injection of ketamine hydrochloride (approximately 10 mg/kg) at AFL and maintained by intravenous infusion of ketamine (4 mg/kg/h) and xylazine (0.4 mg/kg/h) with a pump. The NHP head was immobilized with a fixation device. […] Heart rate, blood pressure, respiratory rate, and oxygen saturation were continuously monitored throughout the experiments. Fluid balance was maintained by continuous infusion of saline.
# PET measurements were conducted using a High Resolution Research Tomograph (HRRT) PET scanner (Siemens Molecular Imaging, Knoxville, TN). […] List-mode data were reconstructed with a series of 34 frames (20 s × 9, 1 min × 3, 3 min × 5, and 6 min × 17), using the ordinary Poisson-3D-ordered subset expectation maximization (OP-3D-OSEM) algorithm with 10 iterations and 16 subsets including modeling of the point spread function (PSF).
# (§1) An automated blood sampling system (ABSS) was used to measure the continuous radioactivity for the first 3 min after the radioligand injection. Then, blood sampling was performed manually for the measurement of metabolism and radioactivity at 5, 15, 30, 60, 90, and 120 min after the injection. A reversed-phase radio-HPLC method was used to determine the amount of unchanged ^18F-AZD9272 and its radioactive metabolites in NHP plasma.[35]
# The regions of interest (ROIs) were delineated manually on the MRI images of each NHP for the anterior cingulate cortex, amygdala, caudate, cerebellum, hippocampus, insular cortex, occipital cortex, prefrontal cortex, putamen, temporal cortex, thalamus, ventral midbrain, and ventral striatum. The MRI of the individual NHP was co-registered to summed PET images of the whole measurement. By applying the co-registration parameters to ROIs, the time–activity curves of brain regions were generated from dynamic PET data.
# As the main outcome measure, the total distribution volume (VT) defined as (K1/k2)(k3/k4 + 1) by the two tissue compartment (2TC) model and Logan graphical analysis (GA) was calculated with the metabolite corrected plasma radioactivity as the input function. […] The procedure has been described in detail in a previous publication on [^11C]AZD9272 binding.[33]
# [2] = Radiometabolite analysis of plasma by radio-HPLC during PET; format: in vivo, cynomolgus monkey
# Experimental: as §1
structure (smiles),measurement,setting,value
"N#Cc1cc(F)cc(-c2nc(-c3ccc([18F])cn3)no2)c1 [^18F-AZD9272, 3-fluoro-5-(3-(5-[^18F]fluoropyridin-2-yl)-1,2,4-oxadiazol-5-yl)benzonitrile]",Specific binding inhibited by administration of a MAO-B-selective ligand,[1],approximately 90%
same,VT,"mGluR5; ACC anterior cingulate cortex, 2TC, NHP1",11.5 mL/cm^3
same,VT,"mGluR5; ACC anterior cingulate cortex, 2TC, NHP2",11.2 mL/cm^3
same,VT,"mGluR5; ACC anterior cingulate cortex, 2TC, mean",11.4 mL/cm^3
same,VT,"mGluR5; ACC anterior cingulate cortex, GA, NHP1",10.2 mL/cm^3
same,VT,"mGluR5; ACC anterior cingulate cortex, GA, NHP2",10.7 mL/cm^3
same,VT,"mGluR5; ACC anterior cingulate cortex, GA, mean",10.4 mL/cm^3
same,VT,"mGluR5; AMG amygdala, 2TC, NHP1",15.0 mL/cm^3
same,VT,"mGluR5; AMG amygdala, 2TC, NHP2",14.4 mL/cm^3
same,VT,"mGluR5; AMG amygdala, 2TC, mean",14.7 mL/cm^3
same,VT,"mGluR5; AMG amygdala, GA, NHP1",12.8 mL/cm^3
same,VT,"mGluR5; AMG amygdala, GA, NHP2",13.1 mL/cm^3
same,VT,"mGluR5; AMG amygdala, GA, mean",13.0 mL/cm^3
same,VT,"mGluR5; CAU caudate, 2TC, NHP1",13.3 mL/cm^3
same,VT,"mGluR5; CAU caudate, 2TC, NHP2",13.7 mL/cm^3
same,VT,"mGluR5; CAU caudate, 2TC, mean",13.5 mL/cm^3
same,VT,"mGluR5; CAU caudate, GA, NHP1",12.1 mL/cm^3
same,VT,"mGluR5; CAU caudate, GA, NHP2",13.0 mL/cm^3
same,VT,"mGluR5; CAU caudate, GA, mean",12.6 mL/cm^3
same,VT,"mGluR5; CER cerebellum, 2TC, NHP1",7.1 mL/cm^3
same,VT,"mGluR5; CER cerebellum, 2TC, NHP2",7.9 mL/cm^3
same,VT,"mGluR5; CER cerebellum, 2TC, mean",7.5 mL/cm^3
same,VT,"mGluR5; CER cerebellum, GA, NHP1",6.6 mL/cm^3
same,VT,"mGluR5; CER cerebellum, GA, NHP2",7.6 mL/cm^3
same,VT,"mGluR5; CER cerebellum, GA, mean",7.1 mL/cm^3
same,VT,"mGluR5; HIP hippocampus, 2TC, NHP1",10.7 mL/cm^3
same,VT,"mGluR5; HIP hippocampus, 2TC, NHP2",11.9 mL/cm^3
same,VT,"mGluR5; HIP hippocampus, 2TC, mean",11.3 mL/cm^3
same,VT,"mGluR5; HIP hippocampus, GA, NHP1",9.7 mL/cm^3
same,VT,"mGluR5; HIP hippocampus, GA, NHP2",11.2 mL/cm^3
same,VT,"mGluR5; HIP hippocampus, GA, mean",10.5 mL/cm^3
same,VT,"mGluR5; INS insular cortex, 2TC, NHP1",9.0 mL/cm^3
same,VT,"mGluR5; INS insular cortex, 2TC, NHP2",10.0 mL/cm^3
same,VT,"mGluR5; INS insular cortex, 2TC, mean",9.5 mL/cm^3
same,VT,"mGluR5; INS insular cortex, GA, NHP1",8.5 mL/cm^3
same,VT,"mGluR5; INS insular cortex, GA, NHP2",9.6 mL/cm^3
same,VT,"mGluR5; INS insular cortex, GA, mean",9.1 mL/cm^3
same,Regional brain uptake (PET),mGluR5; NHP brain,"highest in the striatum, lower in the thalamus and frontal cortex, and lowest in the cerebellum and occipital cortex"
same,VT,"mGluR5; OC occipital cortex, 2TC, NHP1",5.4 mL/cm^3
same,VT,"mGluR5; OC occipital cortex, 2TC, NHP2",6.0 mL/cm^3
same,VT,"mGluR5; OC occipital cortex, 2TC, mean",5.7 mL/cm^3
same,VT,"mGluR5; OC occipital cortex, GA, NHP1",5.5 mL/cm^3
same,VT,"mGluR5; OC occipital cortex, GA, NHP2",5.7 mL/cm^3
same,VT,"mGluR5; OC occipital cortex, GA, mean",5.6 mL/cm^3
same,VT,"mGluR5; PFC prefrontal cortex, 2TC, NHP1",9.6 mL/cm^3
same,VT,"mGluR5; PFC prefrontal cortex, 2TC, NHP2",9.5 mL/cm^3
same,VT,"mGluR5; PFC prefrontal cortex, 2TC, mean",9.5 mL/cm^3
same,VT,"mGluR5; PFC prefrontal cortex, GA, NHP1",8.9 mL/cm^3
same,VT,"mGluR5; PFC prefrontal cortex, GA, NHP2",9.3 mL/cm^3
same,VT,"mGluR5; PFC prefrontal cortex, GA, mean",9.1 mL/cm^3
same,VT,"mGluR5; PUT putamen, 2TC, NHP1",9.5 mL/cm^3
same,VT,"mGluR5; PUT putamen, 2TC, NHP2",10.7 mL/cm^3
same,VT,"mGluR5; PUT putamen, 2TC, mean",10.1 mL/cm^3
same,VT,"mGluR5; PUT putamen, GA, NHP1",9.3 mL/cm^3
same,VT,"mGluR5; PUT putamen, GA, NHP2",10.1 mL/cm^3
same,VT,"mGluR5; PUT putamen, GA, mean",9.7 mL/cm^3
same,VT,"mGluR5; TC temporal cortex, 2TC, NHP1",7.6 mL/cm^3
same,VT,"mGluR5; TC temporal cortex, 2TC, NHP2",8.4 mL/cm^3
same,VT,"mGluR5; TC temporal cortex, 2TC, mean",8.0 mL/cm^3
same,VT,"mGluR5; TC temporal cortex, GA, NHP1",7.2 mL/cm^3
same,VT,"mGluR5; TC temporal cortex, GA, NHP2",8.1 mL/cm^3
same,VT,"mGluR5; TC temporal cortex, GA, mean",7.7 mL/cm^3
same,VT,"mGluR5; THA thalamus, 2TC, NHP1",11.7 mL/cm^3
same,VT,"mGluR5; THA thalamus, 2TC, NHP2",11.4 mL/cm^3
same,VT,"mGluR5; THA thalamus, 2TC, mean",11.6 mL/cm^3
same,VT,"mGluR5; THA thalamus, GA, NHP1",10.6 mL/cm^3
same,VT,"mGluR5; THA thalamus, GA, NHP2",10.8 mL/cm^3
same,VT,"mGluR5; THA thalamus, GA, mean",10.7 mL/cm^3
same,VT,"mGluR5; VM ventral midbrain, 2TC, NHP1",11.0 mL/cm^3
same,VT,"mGluR5; VM ventral midbrain, 2TC, NHP2",8.9 mL/cm^3
same,VT,"mGluR5; VM ventral midbrain, 2TC, mean",9.9 mL/cm^3
same,VT,"mGluR5; VM ventral midbrain, GA, NHP1",9.1 mL/cm^3
same,VT,"mGluR5; VM ventral midbrain, GA, NHP2",8.4 mL/cm^3
same,VT,"mGluR5; VM ventral midbrain, GA, mean",8.8 mL/cm^3
same,VT,"mGluR5; VST ventral striatum, 2TC, NHP1",17.3 mL/cm^3
same,VT,"mGluR5; VST ventral striatum, 2TC, NHP2",17.3 mL/cm^3
same,VT,"mGluR5; VST ventral striatum, 2TC, mean",17.3 mL/cm^3
same,VT,"mGluR5; VST ventral striatum, GA, NHP1",14.5 mL/cm^3
same,VT,"mGluR5; VST ventral striatum, GA, NHP2",15.6 mL/cm^3
same,VT,"mGluR5; VST ventral striatum, GA, mean",15.1 mL/cm^3
same,Maximum whole brain radioactivity concentration,"mGluR5; two cynomolgus monkeys (n = 2), i.v.",4.9–6.7 % of the injected dose
same,Parent compound in plasma,[2]; 5 min after injection,approximately 95%
same,Percentage of parent radioligand in plasma,"[2]; 120 min after injection, individual animals (n = 2)",59% and 64%
